Structures can show the parent of a compound that is named as a salt.

One data set can be described thus: in vitro. Particulars: rat, gh3-tre-luc cells, AC50 (uM) modified / 1000.
`C=C(C)OC(C)=O` [Isopropenyl acetate] returned a half-maximal cytotoxic concentration (CC50) at 24 h above 90 µM.

`CC(=O)OC(C)C` [Isopropyl acetate] showed a half-maximal cytotoxic concentration (CC50) at 24 h above 90 µM.

`CC(C)OC(C)C` [Isopropyl ether] displayed a cytotoxic concentration (CC50) at 24 h above 100 µM.

In turn, `CC(C)OC=O` [Isopropyl formate] had a cytotoxic concentration (CC50) at 24 h above 100 µM.

Regarding `CC(C)OCC1CO1` (centres unmarked) [Isopropyl glycidyl ether], the CC50 at 24 h is above 90 µM.

Molecule `CC(C)S` [Isopropyl mercaptan] showed a CC50 at 24 h above 90 µM.

As to `C=C(C)C(=O)OC(C)C` [Isopropyl methacrylate], the half-maximal cytotoxic concentration (CC50) at 24 h is above 90 µM.

On to `CC(C)C(=O)c1ccccc1` [Isopropyl phenyl ketone], for which the 50% cytotoxic concentration (CC50) at 24 h was above 90 µM.

Turning to `Cc1ccc(C(C)C)cc1O` [Isopropyl-o-cresol], the CC50 at 24 h is above 90 µM.

Take `CC(C)NCC(O)c1ccc(O)c(O)c1` (centres unmarked) [Isoproterenol hydrochloride]: the cytotoxic concentration (CC50) at 24 h was above 90 µM.

With `CC(C)c1ccc(NC(=O)N(C)C)cc1` [Isoproturon], the cytotoxic concentration (CC50) at 24 h is above 90 µM.

Regarding `C=C(C)[C@@H]1CC[C@@H](C)C[C@H]1O` [Isopulegol], the CC50 at 24 h was above 90 µM.

For `c1ccc2cnccc2c1` [Isoquinoline], the half-maximal cytotoxic concentration (CC50) at 24 h is above 90 µM.

As to `O=[N+]([O-])O[C@@H]1CO[C@H]2[C@@H]1OC[C@@H]2O` [Isosorbide 5-mononitrate], the 50% cytotoxic concentration (CC50) at 24 h is above 50 µM.

The molecule `O[C@@H]1CO[C@H]2[C@@H]1OC[C@@H]2O` [Isosorbide] came in with a CC50 at 24 h above 50 µM.

For `CC(CN1c2ccccc2Sc2cccnc21)N(C)C` (centres unmarked) [Isothipendyl hydrochloride], it took 28 µM to reach half-maximal cytotoxicity (CC50 at 24 h).

In turn, `CC(C)CC#N` [Isovaleronitrile] came in with a CC50 at 24 h above 90 µM.

For the molecule `CCC(C)(CC)c1cc(NC(=O)c2c(OC)cccc2OC)on1` [Isoxaben], the half-maximal cytotoxic concentration (CC50) at 24 h was above 90 µM.

Molecule `CCOC(=O)C1=NOC(c2ccccc2)(c2ccccc2)C1` [Isoxadifen-ethyl] came in with a CC50 at 24 h above 90 µM.

`CS(=O)(=O)c1cc(C(F)(F)F)ccc1C(=O)c1cnoc1C1CC1` [Isoxaflutole] gave a 50% cytotoxic concentration (CC50) at 24 h above 90 µM.

As to `Cc1cc(NC(=O)C2=C(O)c3ccccc3S(=O)(=O)N2C)no1` [Isoxicam], the CC50 at 24 h is above 50 µM.

The molecule `CC(COc1ccccc1)NC(C)C(O)c1ccc(O)cc1` (centres unmarked) [Isoxsuprine hydrochloride] returned a cytotoxic concentration (CC50) at 24 h above 20 µM.

In the case of `COC(=O)C1=C(C)NC(C)=C(C(=O)OC(C)C)C1c1cccc2nonc12` (centres unmarked) [Isradipine], the 50% cytotoxic concentration (CC50) at 24 h is above 20 µM.

Consider `Cc1nnc2n1-c1sc(CCc3ccc(CC(C)C)cc3)cc1C(c1ccccc1Cl)=NC2C` (centres unmarked) [Israpafant], for which it took 13.6 µM to reach half-maximal cytotoxicity (CC50 at 24 h).

As to `CN1[C@@H]2CC[C@H]1CC(NC(=O)n1c(=O)[nH]c3ccccc31)C2` (some centres unmarked) [Itasetron], the half-maximal cytotoxic concentration (CC50) at 24 h was above 50 µM.

Molecule `COc1ccc(C(=O)NCc2ccc(OCCN(C)C)cc2)cc1OC` [Itopride hydrochloride] gave a 50% cytotoxic concentration (CC50) at 24 h above 50 µM.

`Cc1cc(C)c(NC(=O)C[C@H](CC(=O)O)c2cccc3ccccc23)c(C(=O)N2CCC3(CCCC3)CC2)c1` [Itriglumide sodium] came in with a CC50 at 24 h of 26.9 µM.

Turning to `COc1cc2c(cc1OC)CC(=O)N(CCCN(C)C[C@H]1Cc3cc(OC)c(OC)cc31)CC2` [Ivabradine hydrochloride], the CC50 at 24 h was above 50 µM.

On to `CC[C@H](C)[C@H]1O[C@]2(CC[C@@H]1C)C[C@@H]1C[C@@H](C/C=C(\C)[C@@H](O[C@H]3C[C@H](OC)[C@@H](O[C@H]4C[C@H](OC)[C@@H](O)[C@H](C)O4)[C@H](C)O3)[C@@H](C)/C=C/C=C3\CO[C@@H]4[C@H](O)C(C)=C[C@@H](C(=O)O1)[C@]34O)O2` [Ivermectin B1a], for which the CC50 at 24 h was determined as 2.85 µM.

Consider `CC/C=C\CC1=C(C)CCC1=O` [Jasmone], for which the CC50 at 24 h is above 90 µM.

Regarding `CO[C@@H]1[C@@H](O[C@@H]2O[C@H](C)[C@@H](O[C@H]3C[C@@](C)(O)[C@@H](OC(=O)CC(C)C)[C@H](C)O3)[C@H](N(C)C)[C@H]2O)[C@@H](CC=O)C[C@@H](C)[C@@H](O)/C=C/C=C/C[C@@H](C)OC(=O)C[C@H]1OC(C)=O` [Josamycin], the CC50 at 24 h is above 20 µM.

As for `CC1(C)[C@H](C(=O)OCc2coc(Cc3ccccc3)c2)[C@@H]1/C=C1\CCSC1=O` [Kadethrin], the CC50 at 24 h was above 90 µM.

Turning to `C[C@H]1O[C@H](O[C@H]2[C@H](O)[C@@H](O)[C@@H](O)[C@H](O)[C@@H]2O)[C@@H](N)C[C@@H]1NC(=N)C(=O)O` [Kasugamycin hydrochloride], the half-maximal cytotoxic concentration (CC50) at 24 h was above 90 µM.

`CNC1(c2ccccc2Cl)CCCCC1=O` (centres unmarked) [Ketamine] came in with a CC50 at 24 h above 50 µM.

`O=C(c1ccc(F)cc1)C1CCN(CCn2c(=O)[nH]c3ccccc3c2=O)CC1` [Ketanserin] displayed a CC50 at 24 h above 50 µM.

Consider `CC(C(=O)O)c1cccc(C(=O)c2ccccc2)c1` (centres unmarked) [Ketoprofen], for which the CC50 at 24 h is above 90 µM.

For the molecule `CN1CCC(=C2c3ccccc3CC(=O)c3sccc32)CC1` [Ketotifen], the CC50 at 24 h came out at 16 µM.

Take `COc1c2occc2c(OC)c2c(=O)cc(C)oc12` [Khellin]: the CC50 at 24 h is above 20 µM.

`c1coc(CNc2ncnc3[nH]cnc23)c1` [Kinetin] had a CC50 at 24 h above 90 µM.

For the molecule `O=c1cc(CO)occ1O` [Kojic acid], the CC50 at 24 h is above 50 µM.

Consider `CO/N=C(/C(=O)OC)c1ccccc1COc1ccccc1C` [Kresoxim-methyl], for which the 50% cytotoxic concentration (CC50) at 24 h is above 90 µM.

Take `c1cncc([C@@H]2CCCCN2)c1` [L-3-(2'-Piperidyl)pyridine]: the 50% cytotoxic concentration (CC50) at 24 h is above 90 µM.

Consider `N[C@@H](Cc1c[nH]c2ccc(O)cc12)C(=O)O` [L-5-Hydroxytryptophan], for which the cytotoxic concentration (CC50) at 24 h was above 90 µM.

Consider `O=C(CO)[C@@H](O)[C@H](O)[C@@H](O)CO` [L-(-)-Sorbose], for which the cytotoxic concentration (CC50) at 24 h was above 50 µM.

Turning to `CC[C@@H](C)[C@H](N)C(=O)O` [L-Alloisoleucine], the CC50 at 24 h is above 50 µM.

For the molecule `N=C(N)NCCC[C@H](N)C(=O)O` [L-Arginine], the half-maximal cytotoxic concentration (CC50) at 24 h is above 50 µM.

`O=C1O[C@H]([C@@H](O)CO)C(O)=C1O` [L-Ascorbic acid]: the CC50 at 24 h was above 90 µM.

The molecule `O=C(/C=C/c1ccc(O)c(O)c1)O[C@@H](C(=O)O)[C@@H](OC(=O)/C=C/c1ccc(O)c(O)c1)C(=O)O` [L-Cichoric acid] displayed a CC50 at 24 h above 90 µM.

With `N[C@@H](CSSC[C@H](N)C(=O)O)C(=O)O` [L-Cystine], the 50% cytotoxic concentration (CC50) at 24 h was above 50 µM.

In the case of `N[C@@H](Cc1ccc(O)c(O)c1)C(=O)O` [L-Dopa], the CC50 at 24 h is above 50 µM.

Consider `OC[C@@H](O)[C@H](O)[C@@H](O)[C@@H](O)CO` [L-Glucitol], for which the CC50 at 24 h is above 90 µM.

`N[C@@H](CCC(=O)O)C(=O)O` [L-Glutamic acid hydrochloride] returned a cytotoxic concentration (CC50) at 24 h above 90 µM.

`N[C@@H](Cc1c[nH]cn1)C(=O)O` [L-Histidine hydrochloride] yielded a cytotoxic concentration (CC50) at 24 h above 50 µM.

Molecule `COC(=O)[C@@H](N)CCCNC(=N)N[N+](=O)[O-]` [L-Nitroarginine methyl ester] came in with a CC50 at 24 h above 50 µM.

`O=C(O)[C@H](O)[C@@H](O)C(=O)O` [L-Tartaric acid] yielded a CC50 at 24 h above 90 µM.

As to `O=C(O)[C@@H]1CSCN1` [L-Thioproline], the CC50 at 24 h is above 50 µM.

As for `C[C@@H](O)[C@H](N)C(=O)O` [L-Threonine], the CC50 at 24 h is above 50 µM.

Molecule `N[C@@H](Cc1ccc(O)cc1)C(=O)O` [L-Tyrosine] yielded a CC50 at 24 h above 50 µM.

Molecule `CC1=CC(=O)[C@H]2C[C@@H]1C2(C)C` [L-Verbenone] yielded a CC50 at 24 h above 90 µM.

The molecule `CCOC(=O)C1=C(C)NC(C)=C(C(=O)OCC)C1c1ccccc1/C=C/C(=O)OC(C)(C)C` [Lacidipine] yielded a CC50 at 24 h of 11.2 µM.

The data set is the same for the next values; noted with them: rat, gh3-tre-luc cells, AC50 (uM) modified / 1000, Tox21_110001=Tox21_110905; viability, 1 nM T3 present, 24 h.
`C=C(C)[C@H]1CN[C@H](C(=O)O)[C@H]1CC(=O)O` [Kainic acid]: the CC50 at 24 h was above 50 µM.

The same data set, now with this note: rat, gh3-tre-luc cells, AC50 (uM) modified / 1000, Tox21_110001=Tox21_112831; viability, 1 nM T3 present, 24 h.
The molecule `CC[C@H](OC(C)=O)C(C[C@H](C)NC)(c1ccccc1)c1ccccc1` [L-alpha-Acetyl-N-normethadol hydrochloride] returned a CC50 at 24 h of 17.4 µM.

Still in this data set, the particulars now being: rat, gh3-tre-luc cells, AC50 (uM) modified / 1000, Tox21_110001=Tox21_200855; viability, 1 nM T3 present, 24 h.
Molecule `CC(C)OS(C)(=O)=O` [Isopropyl methanesulfonate] registered a CC50 at 24 h above 90 µM.

The same data set, now with this note: rat, gh3-tre-luc cells, AC50 (uM) modified / 1000, Tox21_110001=Tox21_200907; viability, 1 nM T3 present, 24 h.
Molecule `COC1=CC(=O)O[C@@H](/C=C/c2ccccc2)C1` [Kavain] came in with a CC50 at 24 h above 90 µM.

The same data set, now with this note: rat, gh3-tre-luc cells, AC50 (uM) modified / 1000, Tox21_110001=Tox21_201145; viability, 1 nM T3 present, 24 h.
On to `CC(C)OC(=O)Cc1ccccc1` [Isopropyl phenylacetate], for which the CC50 at 24 h was above 90 µM.

The same data set, now with this note: rat, gh3-tre-luc cells, AC50 (uM) modified / 1000, Tox21_110001=Tox21_201592; viability, 1 nM T3 present, 24 h.
`O=C1C2(Cl)C3(Cl)C4(Cl)C(Cl)(Cl)C5(Cl)C3(Cl)C1(Cl)C5(Cl)C24Cl` (centres unmarked) [Kepone] displayed a CC50 at 24 h of 11.6 µM.

The same data set, now with this note: rat, gh3-tre-luc cells, AC50 (uM) modified / 1000, Tox21_110001=Tox21_201783; viability, 1 nM T3 present, 24 h.
Molecule `C/C=C/c1ccc2c(c1)OCO2` [Isosafrole] yielded a cytotoxic concentration (CC50) at 24 h above 90 µM.

Still in this data set, the particulars now being: rat, gh3-tre-luc cells, AC50 (uM) modified / 1000, Tox21_110001=Tox21_300098; viability, 1 nM T3 present, 24 h.
`O=C1C2(Cl)C3(Cl)C4(Cl)C(Cl)(Cl)C5(Cl)C3(Cl)C1(Cl)C5(Cl)C24Cl` (centres unmarked) [Kepone]: the CC50 at 24 h was found to be 10.7 µM.

Still in this data set, the particulars now being: rat, gh3-tre-luc cells, AC50 (uM) modified / 1000, Tox21_110001=Tox21_301748; viability, 1 nM T3 present, 24 h.
In the case of `CN(C)C(=O)Nc1cccc(OC(=O)NC(C)(C)C)c1` [Karbutilate], the 50% cytotoxic concentration (CC50) at 24 h was above 90 µM.

The same data set, now with this note: rat, gh3-tre-luc cells, AC50 (uM) modified / 1000, Tox21_110001=Tox21_302008; viability, 1 nM T3 present, 24 h.
Take `C#CCOC(=O)/C=C(C)/C=C/CC(C)CCCC(C)C` (centres unmarked) [Kinoprene]: the CC50 at 24 h is above 90 µM.

The data set is the same for the next values; noted with them: rat, gh3-tre-luc cells, AC50 (uM) modified / 1000, Tox21_110001=Tox21_302209; viability, 1 nM T3 present, 24 h.
`CCOP(=S)(OCC)Oc1cc(-c2ccccc2)on1` [Isoxathion] came in with a CC50 at 24 h above 90 µM.

The record behind these values is article PMC6792352, “Limited Chemical Structural Diversity Found to Modulate Thyroid Hormone Receptor in the Tox21 Chemical Library” (Environmental Health Perspectives, 2019).
